Laboratory results from patent US20250210145A1, “METHOD FOR DETERMINING THE RESISTANCE OF A MICROORGANISM TO AN ANTIMICROBIAL AGENT” (Commissariat à l'Energie Atomique et aux Energies …, priority 2023, published 2025).

Experiments:
[1] = test system: Escherichia coli strain ATCC25922 ("EC10"); experiment: FTIR heavy-water labeling level (metabolism) versus antibiotic concentration, strain EC10; format: cell-based; conditions: FIG. 4C, amoxicillin 1-64 μg/mL, two hours incubation, Mueller-Hinton medium with 50% v/v heavy water
Description: (§1) Once the LDA classifier had been parameterized, it was used in a test phase on Escherichia coli cultures.
(§2) An overnight pre-culture was performed to synchronize the metabolic states of the bacterial populations. Test samples were prepared using different concentrations of amoxicillin (64, 32, 16, 8, 4, 2 and 1 μg/mL), and a culture of each strain was prepared in 2 ml of Mueller-Hinton medium with 50% v/v heavy water and antibiotic. A control sample without antibiotic was prepared. The test samples were then incubated for two hours. After incubation, the test samples were centrifuged and re-suspended in 30 μL of water, then a 5 μl drop was placed on a calcium fluoride slide. The slide was dried by exposure to a hot, dry atmosphere. On each test sample, 64 spectra are acquired using an FTIR microscope at 15× magnification, in order to eliminate potential variations in the sample's thickness of texture.
(§3) This provided test spectra corresponding to the exposure of bacterial strains to different antibiotic concentrations. The algorithm parameterized during the training phase enabled measuring a labeling level for each sample, which is considered representative of metabolic activity.

[2] = test system: Escherichia coli strain ATCC25922 ("EC10"); conditions: cited from earlier work
[3] = test system: Escherichia coli strain ATCC35218 ("EC207"); conditions: cited from earlier work
[4] = test system: Escherichia coli strain ATCC35218 ("EC207"); experiment: FTIR heavy-water labeling level (metabolism) versus antibiotic concentration, strain EC207; format: cell-based; conditions: FIG. 4C, amoxicillin 1-64 μg/mL, two hours incubation, Mueller-Hinton medium with 50% v/v heavy water
Description: as §1, §2, §3

[5] = test system: Staphylococcus Saprophyticus strains SS91, SS96; experiment: FTIR heavy-water labeling level (metabolism) versus antibiotic concentration, strains not used during training; format: cell-based; conditions: FIG. 5; each of strains SS91 and SS96, above a strain-specific antibiotic concentration (value not given)
Source text: The x-axis corresponds to the antibiotic concentration (Gentamicin). The y-axis corresponds to a labeling level.

Row | Compound | concentration above which the strain is sensitive (labeling level decreases) [1] | sensitivity to the antibiotic (reference strain status) [2] | concentration above which growth inhibition is exhibited ([2]; reference strain ATCC25922 (EC10)) | sensitivity to the antibiotic (reference strain status) [3] | resistance judged from labeling level (metabolism) [4] | labeling level as a function of antibiotic concentration [5]
1 | CC1(C)S[C@@H]2[C@H](NC(=O)[C@H](N)c3ccc(O)cc3)C(=O)N2[C@H]1C(=O)O [amoxicillin] | ~10 µg/mL | sensitive | 4 µg/mL | resistant | resistant to all the antibiotic concentrations used | –
2 | Gentamicin | – | – | – | – | – | labeling level decreases
